According to patent publication US11000635B2, “Antimicrobial compositions comprising minocycline and oxidized cellulose” (priority 2017, dated 2021):
Converted amounts (≈) assume the structure as drawn. “Also recorded” adds a separate entry of the source.

Key:
[1] = test system: Staphylococcus aureus (S. aureus), Strain #6538; test: Primary stage MIC measurement of antibiotic alone (2-fold dilutions, OD 600 nm growth curves); assay type: cell-based; conditions: for MIC: Staphylococcus aureus, read-out: MIC values for S. aureus found in the present study (in-house primary MIC)
Method: An isolated colony of S. aureus bacteria was picked from afresh streak plate (no more than 1 week old). The colony was transferred into 3-4 ml of TSB and incubated overnight in an orbital shaker at 35° C.-37° C.
The following day, the turbidity of the actively-growing broth culture was adjusted with Calcium-adjusted Mueller Hinton broth II (MHBII) to be equivalent to that of a 0.5 McFarland standard (1×10^8 CFU/ml). The broth culture was maintained under ambient conditions prior to use.
No more than 15 minutes prior to use, the culture was further diluted 20 fold in MHBII to obtain a final 5×10^6 CFU/ml stock suspension.
The method used in this stage was based on the classic Minimum Inhibitory Concentration (MIC) measurements, as described by the Clinical and Laboratory Standards Institute (CLSI) document M07-A9: “Method for Dilution Antimicrobial Susceptibility Test for Bacteria that Grow Aerobically”. While classic MIC measurements require visual inspection of plates for bacterial growth after 18 hours, growth was monitored in the present study according to optical density (OD) at 600 nm, using an ELISA reader (MultiSkan™ FC ELISA reader, Thermo Fisher Scientific, Massachusetts, USA), thereby obtaining bacterial growth curves for tested antibiotic solutions.
A 96-well assay plate layout (Corning Cat #3596) was prepared as follows:
Columns 1 and 3-12: 100 μl of MHBII alone was added to each well.
[…]: 200 μl of a solution of antibiotic in MHBII at the highest concentration to be tested was added to each well.
A series of 2-fold dilutions was performed, wherein 100 μl of solution of antibiotic was withdrawn from each well of column 2, transferred to the corresponding well of column 3, and mixed.
The dilution was then repeated by transfer from column 3 to column 4, and so on, until column 11, when the 100 μl of solution of antibiotic withdrawn from each well of column 11 was discarded.
The plate was then incubated at 37° C. with shaking in the ELISA reader and the optical density at 600 nm was read every 20 minutes for a total of 18 hours.
The average OD reading obtained for each antibiotic concentration was calculated and plotted against time to obtain a growth curve.
The MIC was determined as the first antibiotic concentration at which […] by the end of the 18-hour period.

[2] = test system: Staphylococcus aureus (S. aureus), Strain #6538; test: Secondary stage: antibiotic alone or blank ORC extracted in antibiotic, bacterial growth curves (ET50); assay type: cell-based; conditions: antibiotic solution with versus without ORC
Method: Blank ORC pads i.e. ORC pads which had not been impregnated with antibiotic (referred to herein as “blank ORC pads”), were subjected to extraction in a solution of antibiotic in PBS for three hours at ambient temperature.
Due to the acidity of ORC, which provides some antibiotic effect, the size of the pad used was small i.e. approximately 1×1.5 inch, weighing between 65-75 mg (70 mg on average) in order to prevent the ORC from affecting the final pH of the assay and therefore the growth of the bacteria.
15 ml tubes, each containing 3 ml of an antibiotic solution at a known concentration in sterile PBS, were prepared in duplicate. […]
The plate was incubated at 37° C. with shaking in the ELISA reader and the optical density at 600 nm was read every 20 minutes for a total of 18 hours.
The average and standard deviation for OD readings was calculated for each time point of the wells using Excel. […]
The average values were also entered into the GraphPad Prism program (GraphPad Software Inc., CA, USA) in order to calculate the Effective Time 50 (ET50) i.e. the time, in minutes, required for the antibiotic to induce a response halfway between the baseline and maximum, where the maximum is the bacterial growth in MHBII with PBS. This provides a quantifiable measure of the efficacy of the antibiotics tested and enables comparison of the various samples tested. […]

[3] = test system: S. aureus; test: Tertiary stage: antimicrobial activity of antibiotic-impregnated ORC extracts (ET50, MIC); assay type: cell-based, Staphylococcus aureus; conditions: for Result (ET50): ORC pad; for Antibiotic-impregnated ORC (tertiary) MIC: single antibiotic impregnated onto ORC pad
Method: The maximum OD is determined by bacterial growth in MHBII without the chemical.
Solutions comprising different concentrations of antibiotics to be tested were prepared in methanol.
Blank ORC pads of dimensions 1×1.5 inch, weighing between 65-75 mg (70 mg on average), in duplicate, were immersed in the antibiotic solutions and then dried using a rotary evaporator to provide “antibiotic-impregnated ORC pads”.
15 ml test tubes containing 3 ml of sterile PBS were prepared, and the antibiotic-impregnated ORC pads were immersed in the tubes and incubated for 3-5 hours at ambient temperature on a roller mixer (Stuart, Cat #SRT9D).
Each of the above extracts was filtered out using a sterile 0.8/0.2 μm syringe filter into a clean 15 ml tube. These extraction fluids are referred to herein as “antibiotic-impregnated ORC extracts”.
Briefly, ORC patches weighing on average 70 mg each were impregnated with the selected antibiotic. Antibiotic-impregnated ORC extracts were prepared by immersion and incubation in 3 ml of sterile PBS for 3 hours at ambient temperature. The ORC was then removed and any remaining ORC particles were filtered out using a […] syringe filter. This extraction fluid was then diluted 10-fold into Muller Hinton growth medium containing bacteria. Bacterial growth was monitored every 20 min for a total of 18 hours according to optical density (OD) at 600 nm, using an ELISA reader.
Since the study included many possible combinations of two antibiotics, each with their own different concentration range, a matrix of possible antibiotic concentrations was designed, and ORC pads prepared accordingly (see Table 10). Since all the possible combinations could not be fitted into one 96 well plate, a series of MIC experiments were carried out.

[4] = test system: S. aureus; conditions: published values; cited from earlier work
[5] = test system: Staphylococcus aureus (S. aureus), Strain #6538; test: Secondary stage: antibiotic alone or blank ORC extracted in antibiotic, bacterial growth curves (ET50); assay type: cell-based; conditions: presence of ORC pads (not impregnated), read-out: MIC upon addition of a small amount of ORC to the growth medium

CO[C@H]1/C=C/O[C@@]2(C)Oc3c(C)c(O)c4c(O)c(c(/C=N/N5CCN(C)CC5)c(O)c4c3C2=O)NC(=O)/C(C)=C\C=C\[C@H](C)[C@H](O)[C@@H](C)[C@@H](O)[C@@H](C)[C@H](OC(C)=O)[C@@H]1C [Rifampin, rifampin]
MIC as single antibiotic in the absence of ORC (first stage MIC results) [1]: 15 ng/mL | MIC ([1]; absence of ORC): 0.015 µg/mL (≈ 0.0182 µM) | Effect of addition of ORC on the antibiotic activity [2]: ORC interferes with the antibiotic activity of rifampin; also recorded: impaired by ORC and MIC was increased | Result (ET50) ([3]; 0.00 μg Minocycline + 31.41 μg Rifampin per gr ORC): 406.8 min | Result (ET50) ([3]; 0.00 μg Minocycline + 62.82 μg Rifampin per gr ORC): 442.3 min | Result (ET50) ([3]; 0.00 μg Minocycline + 125.64 μg Rifampin per gr ORC): 450.4 min | Result (ET50) ([3]; 0.00 μg Minocycline + 157.05 μg Rifampin per gr ORC): 418.1 min | Rifampin concentration sufficient for growth inhibition of S. aureus in combination ([3]; impregnated onto ORC together with 1.26 ng/ml minocycline): 366.5 ng/mL | Antibiotic-impregnated ORC (tertiary) MIC [3]: 0.733 µg/mL | Change of antimicrobial activity when impregnated onto the ORC pad ([3]; versus first stage MIC): activity was impaired | MIC values for S. aureus according to CLSI [4]: 0.004 to 0.015 µg/mL

Gentamycin [Gentamicin]
MIC values for S. aureus found in the present study (in-house primary MIC) ([1]; absence of ORC): 0.25 µg/mL | Effect of addition of ORC on the antibiotic activity [2]: decreased antibiotic activity; also recorded: impaired by ORC and MIC was increased | MIC values for S. aureus according to CLSI [4]: 0.12 to 1 µg/mL

CCC[C@@H]1C[C@@H](C(=O)N[C@@H]([C@H]2O[C@H](SC)[C@H](O)[C@@H](O)[C@H]2O)[C@H](C)Cl)N(C)C1 [Clindamycin, clindamycin]
MIC as single antibiotic in the absence of ORC (first stage MIC results) [1]: 62 ng/mL | MIC ([1]; absence of ORC): 0.062 µg/mL (≈ 0.146 µM) | Antibiotic-impregnated ORC (tertiary) MIC [3]: 0.015 µg/mL

CN(C)c1ccc(O)c2c1C[C@H]1C[C@H]3[C@H](N(C)C)C(O)=C(C(N)=O)C(=O)[C@@]3(O)C(O)=C1C2=O [Minocycline, minocycline]
MIC as single antibiotic in the absence of ORC (first stage MIC results) [1]: 250 ng/mL | MIC ([1]; absence of ORC): 0.25 µg/mL (≈ 0.546 µM) | Result (ET50) ([3]; 0.54 μg Minocycline + 0.00 μg Clindamycin per gr ORC): 637.6 min | Result (ET50) ([3]; 0.54 μg Minocycline + 0.00 μg Rifampin per gr ORC): 585.4 min | Result (ET50) ([3]; 1.08 μg Minocycline + 0.00 μg Clindamycin per gr ORC): 1072 min | Result (ET50) ([3]; 1.08 μg Minocycline + 0.00 μg Rifampin per gr ORC): 799.9 min | Result (ET50) ([3]; 2.16 μg Minocycline + 0.00 μg Clindamycin per gr ORC): >2000 min | Result (ET50) ([3]; 2.16 μg Minocycline + 0.00 μg Rifampin per gr ORC): >2000 min | Result (ET50) ([3]; 2.70 μg Minocycline + 0.00 μg Clindamycin per gr ORC): >2000 min | Result (ET50) ([3]; 2.70 μg Minocycline + 0.00 μg Rifampin per gr ORC): >2000 min | MIC ([3]; Staphylococcus aureus, single antibiotic impregnated onto ORC, read-out: MIC of minocycline together with ORC, ORC impregnated with minocycline): 0.0126 µg/mL | Minocycline concentration sufficient for growth inhibition of S. aureus in combination ([3]; impregnated onto ORC together with rifampin or clindamycin): 1.26 ng/mL | Antibiotic-impregnated ORC (tertiary) MIC [3]: 0.0126 µg/mL | Fold reduction of the MIC when impregnated onto ORC in combination with an additional antibiotic ([3]; versus single antibiotic in the absence of ORC (first stage MIC)): 200 | MIC [5]: 0.05 µg/mL
